Assay results from US5468754A, “11,7 substituted camptothecin derivatives and formulations of 11,7 substituted camptothecin derivatives and methods for uses thereof” (priority 1994, dated 1995).
Where two headings read alike, the source gives them in different places.

What was measured:
[1] = system: Topoisomerase I, purified from calf thymus; details: cited from earlier work
[2] = system: Topoisomerase I, purified from human colon carcinoma cells; details: cited from earlier work
[3] = above 30 mg/m^2/d CPT-11, 5 day continuous infusion; cited from earlier work
[4] = Kaneda et al.; cited from earlier work
MOLT3 cells = details: more potent than CPT-11; cited from earlier work
[5] = in vivo; cited from earlier work
[6] = cited from earlier work
P388 tumor = details: intermittent bolus (days 1, 5, and 9), intraperitoneal; mice; cited from earlier work
[7] = system: topoisomerase I enzyme of P388 cells; details: greater than CPT-11; cited from earlier work
[8] = cited from earlier work; remark: listed apart in the source
[9] = cited from earlier work; remark: listed apart in the source
topoisomerase I = details: cited from earlier work
[10] = compared with parent compound camptothecin; cited from earlier work
Solubility in DMA or DMI = type: physicochemical; details: organic solvent or mixture, in presence of pharmaceutically acceptable acid
Experimental: Yet another embodiment of this invention for oral administration to a patient with cancer is 11,7-HECPT or 11,7-HMCPT dissolved in dimethylisosorbide (DMI) or dimethylacetamide (DMA) in the presence of a pharmaceutically acceptable acid. More specifically, approximately 10 mg of 11,7-HECPT or 11,7-HMCPT can be dissolved in each milliliter of DMA. However, only approximately 5.0 mg of 11,7-HECPT or 11,7-HMCPT can be dissolved in each milliliter of DMI.

[11] = more toxic than sodium camptothecin, mice; cited from earlier work
L1210 cells = details: cited from earlier work
[12] = similar form; vs intravenous administration (U.S. Pat. No. 4,713,246); cited from earlier work
[13] = dimethylacetamide, read-out: solubility in DMA
[14] = dimethylisosorbide, read-out: solubility in DMI

Question: Which “inhibition of Topoisomerase I” value [1] does the source give for CCc1c2c(nc3ccc(O)cc13)-c1cc3c(c(=O)n1C2)COC(=O)[C@]3(O)CC [SN38, 10-hydroxy-7-ethyl camptothecin] here?
Answer: Its value is “inhibited”.

Question: And the “inhibition of Topoisomerase I” value [2]?
Answer: Its value is “inhibited”.

Question: What about the “CpMax of SN38 on increasing CPT-11 dose” value [3] of the same compound?
Answer: Its value is “decrease in the CpMax of SN38”.

Question: What about the “plasma concentration of SN38 in mice” value [4] of the same compound?
Answer: The value was “maintained longer after CPT-11 administration than after treatment with SN38”.

Question: And the “potency in generating single-strand DNA breaks relative to CPT-11” value (MOLT3 cells)?
Answer: Its value is “approximately 1000 -fold”.

Question: And the “overall fractional concentration of the lactone species” value [5]?
Answer: Its value is “fairly constant through a range of doses”.

Question: What about the water solubility [6] of the same compound?
Answer: The water solubility was “poorly soluble in water”.

Question: What about the “anti-tumor activity compared to CPT-11 in vivo” value (P388 tumor) of the same compound?
Answer: Its value is “little anti-tumor activity compared to CPT-11”.

Question: What about the “inhibitory activity against topoisomerase I relative to CPT-11” value [7] of the same compound?
Answer: The value was 3600 -fold.

Question: What does the source list for CC[C@@](O)(C(=O)O)c1cc2n(c(=O)c1CO)Cc1cc3ccccc3nc1-2 [sodium camptothecin]?
Answer: Toxicity ([8]; sodium camptothecin, Phase II studies): unpredictable and severe myelosuppression, gastrointestinal toxicity, hemorrhagic cystitis, and alopecia; antitumor activity ([8]; sodium camptothecin, clinical trials): lack of significant anti-tumor activity

Question: For CC[C@@]1(O)C(=O)OCc2c1cc1n(c2=O)Cc2cc3c(CN(C)C)c(O)ccc3nc2-1 [topotecan], which antitumor activity ([9]; compared with parent compound camptothecin) is on record?
Answer: Its antitumor activity is “retain the significant antitumor activity of the parent compound”.

Question: What about the “Topo I inhibition” value (topoisomerase I) of the same compound?
Answer: Its value is “Topo I inhibitor”.

Question: What about the Toxicity [10] of the same compound?
Answer: Its Toxicity is “less sporadic toxicities”.

Question: Which water solubility [6] does the source give for CC[C@@]1(O)C(=O)OCc2c1cc1n(c2=O)Cc2cc3cc4c(cc3nc2-1)OCO4 [10,11-methylene dioxycamptothecin] here?
Answer: Its water solubility is “relatively insoluble in water”.

Question: What about the “activity in preclinical studies” value ([9]; preclinical studies) of the same compound?
Answer: Its value is “very active in preclinical studies”.

Question: For CCc1c2c(nc3cc(O)ccc13)-c1cc3c(c(=O)n1C2)COC(=O)[C@]3(O)CC [11,7-HECPT, 11-hydroxy-7-ethyl camptothecin], which antitumor activity ([9]; previously demonstrated) is on record?
Answer: The antitumor activity was “previously demonstrated antitumor activity”.

Question: And the solubility (Solubility in DMA or DMI; [13])?
Answer: Its solubility is ~10000 µg/mL.

Question: What about the solubility (Solubility in DMA or DMI; [14]) of the same compound?
Answer: Its solubility is ~5000 µg/mL.

Question: What does the source list for CC[C@@]1(O)C(=O)OCc2c1cc1n(c2=O)Cc2c-1nc1cc(O)ccc1c2OC [11,7-HMCPT, 11-hydroxy-7-methoxy camptothecin]?
Answer: water solubility [6]: poor water solubility; antitumor activity ([9]; previously demonstrated): previously demonstrated antitumor activity; solubility (Solubility in DMA or DMI; [13]): ~10000 µg/mL; solubility (Solubility in DMA or DMI; [14]): ~5000 µg/mL

Question: For CC[C@@]1(O)C(=O)OCc2c1cc1n(c2=O)Cc2cc3ccccc3nc2-1 [Camptothecin, camptothecin], which “inhibition of Topoisomerase I” value [1] is on record?
Answer: The value was “inhibited”.

Question: What about the “inhibition of Topoisomerase I” value [2] of the same compound?
Answer: The value was “inhibited”.

Question: What about the “toxicity of lactone form relative to sodium camptothecin” value [11] of the same compound?
Answer: Its value is 10 -fold.

Question: What about the water solubility [6] of the same compound?
Answer: Its water solubility is “highly water insoluble”.

Question: And the “DNA strand breaks in L1210 cells” value (L1210 cells)?
Answer: The value was “an increase in unexplained protein-free breaks”.

Question: And the Toxicity ([8]; camptothecin, Phase I trials, early 1970's)?
Answer: The Toxicity was “unpredictable myelosuppression and hemorrhagic cystitis”.

Question: What about the antitumor activity ([8]; camptothecin, Phase I trials) of the same compound?
Answer: The antitumor activity was “some antitumor activity”.

Question: And the “stabilization of the cleavable complex” value (topoisomerase I; closed lactone vs non-lactone form)?
Answer: Its value is “only the closed lactone form of camptothecin helps stabilize the cleavable complex”.

Question: Which antitumor activity ([9]; previously demonstrated) does the source give for CC[C@@]1(O)C(=O)OCc2c1cc1n(c2=O)Cc2cc3ccc(O)cc3nc2-1 [11-HCPT, 11-hydroxy camptothecin] here?
Answer: The antitumor activity was “previously demonstrated antitumor activity”.

Question: For COc1cc([C@@H]2c3cc4c(cc3[C@@H](O[C@@H]3O[C@@H]5CO[C@@H](C)O[C@H]5[C@H](O)[C@H]3O)[C@H]3COC(=O)[C@H]23)OCO4)cc(OC)c1O [etoposide], which “bioavailability following oral administration” value [12] is on record?
Answer: Its value is “substantially equivalent to that achieved by intravenous administration”.
